Results from paper PMC10301603, “Potent and Selective Benzothiazole-Based Antimitotics with Improved Water Solubility: Design, Synthesis, and Evaluation as Novel Anticancer Agents” (Pharmaceutics, 2023).
Converted amounts (≈) assume the structure as drawn.

system: not listed separately; assay: Aqueous solubility, shake-flask method; assay type: physicochemical; conditions: pH 7.0 buffer, pH 7, aqueous buffer, thermodynamic from solid, shaking flask, buffered media at pH 7.0, mean of three
Procedure: The aqueous solubility of compounds was measured in a Helios Alfa Spectrophotometer. Calibration lines at the maximum wavelength of absorbance were determined for each compound. Then, following the shake-flask method, a suspension of 5 mg of each compound in 500 µL in pH 7.0 buffer was stirred for 72 h at room temperature. The mixture was then filtrated over a […] filter to remove the insoluble fraction. The concentration of the compound in the resulting saturated solution was determined via UV absorbance measurement and interpolation in the calibration line. The aqueous solubility values are given as the average of three independent measurements.

**Q.** Which solubility at 72 h does the source give for `CCNC(=O)N(Cc1ccccn1)c1nc2ccc(OC)cc2s1` [Compound 7, 3-ethyl-1-(6-methoxybenzo[d]thiazol-2-yl)-1-(pyridin-2-ylmethyl)urea] here?
**A.** 98 µg/mL (≈ 286 µM)

**Q.** With `COc1ccc2nc(NCc3ccccn3)sc2c1` [Compound 1, 6-methoxy-N-(pyridin-2-ylmethyl)benzo[d]thiazol-2-amine] as the compound, how does the solubility at 72 h read?
**A.** 48 µg/mL (≈ 177 µM)

system: HT-29 cells; assay: Cell growth inhibition assay (MTT); assay type: cell-based, human; conditions: Homo sapiens, HT-29, 72 h after drug exposure
Procedure: (§1) The cell lines were obtained from ATTC (Manassas, VA, USA). HeLa (human cervix epithelioid carcinoma), MCF7 (human breast adenocarcinoma), HepG2 (human hepatocellular carcinoma), U87 MG (human glioblastoma), T98G (human glioblastoma), GL261 (murine glioma), LNCaP (human prostate cancer), PC-3 (human prostate cancer), and HEK-293 (human embryonic kidney) were grown in Dulbecco’s modified Eagle’s medium (DMEM, Gibco, Waltham, MA, USA), supplemented with 10% (v/v) heat-inactivated fetal bovine serum (HIFBS, Sigma-Aldrich, St. Louis, MO, USA)), 2 mM L-glutamine, 100 μg/mL streptomycin, and 100 units/mL penicillin (Gibco, Waltham, MA, USA) at 37 °C in saturated humidity atmosphere containing 95% air and 5% CO2. Cell line HT-29 (human colon carcinoma) was grown in Roswell Park Memorial Institute (RPMI) 1640 medium (Gibco, Whaltman, MA, USA) supplemented with 10% HIFBS, 100 μg/mL streptomycin, and 100 units/mL penicillin (Gibco, Whaltman, MA, USA) at 37 °C in humidified 95% air and 5% CO2 atmosphere. MycoAlert kit (Lonza, Norwest, Australia) was used to routinely check the presence of mycoplasma, and only mycoplasma-free cells were employed in the experiments.
(§2) Cells were plated in 96-well plates (100 µL/well) at the following concentrations: 30,000 cells/mL (HepG2, U87 MG, T98G, C6, LNCaP, PC3, and HT-29 cells) or 15,000 cells/mL (HeLa and MCF-7 cells). Previous experiments were performed to choose the optimal cell concentration (70–80% confluence) and avoid the formation of cell aggregates. Cells were incubated in complete DMEM or RPMI 1640 medium (see above) at 37 °C and 5% CO2 atmosphere for 24 h to allow for cell attachment to the plate. Then, every compound was added (10 µL/well) to a final concentration of 10 µM. Non-treated cells were used as negative controls. The antiproliferative activity of compounds was measured 72 h after the treatments using the MTT reagent (3-[4,5-dimethylthiazol-2-yl]-2,5-diphenyltetrazolium bromide), (MTT Thiazolyl Blue Tetrazolium Bromide, Sigma-Aldrich, St. Louis, MO, USA) dissolved in PBS at 5 mg/mL. Compounds showing antiproliferative effects at 10 µM were selected to determine their IC50 value. For that purpose, compounds were used at different concentrations ranging from 10^−10 to 10^−2 M. Measurements were performed in triplicate, and each experiment was repeated three times. The IC50 value was determined for every compound using Origin software (OriginLab, Washington, USA). To study the sensitivity to MDR efflux pumps of compounds, the IC50 values were determined by following the same procedure but in the presence of verapamil (final concentration of 10 µM).

**Q.** Which IC50 does the source give for `CCNC(=O)N(Cc1ccccn1)c1nc2ccc(OC)cc2s1` [Compound 7, 3-ethyl-1-(6-methoxybenzo[d]thiazol-2-yl)-1-(pyridin-2-ylmethyl)urea] here?
**A.** 0.303 µM

**Q.** With `COc1ccc2nc(NCc3ccccn3)sc2c1` [Compound 1, 6-methoxy-N-(pyridin-2-ylmethyl)benzo[d]thiazol-2-amine] as the compound, how does the IC50 read?
**A.** 3.51 µM

system: HeLa cells; assay: Cell growth inhibition assay (MTT); assay type: cell-based, human; conditions: Homo sapiens, HeLa, 72 h after drug exposure
Procedure: as §1, §2

**Q.** Which IC50 does the source give for `CCNC(=O)N(Cc1ccccn1)c1nc2ccc(OC)cc2s1` [Compound 7, 3-ethyl-1-(6-methoxybenzo[d]thiazol-2-yl)-1-(pyridin-2-ylmethyl)urea] here?
**A.** 0.275 µM

**Q.** With `COc1ccc2nc(NCc3ccccn3)sc2c1` [Compound 1, 6-methoxy-N-(pyridin-2-ylmethyl)benzo[d]thiazol-2-amine] as the compound, how does the IC50 read?
**A.** 1.78 µM

system: HepG2 cells; assay: Cell growth inhibition assay (MTT); assay type: cell-based, human; conditions: Homo sapiens, HepG2, 72 h after drug exposure
Procedure: as §1, §2

**Q.** With `CCNC(=O)N(Cc1ccccn1)c1nc2ccc(OC)cc2s1` [Compound 7, 3-ethyl-1-(6-methoxybenzo[d]thiazol-2-yl)-1-(pyridin-2-ylmethyl)urea] as the compound, how does the IC50 read?
**A.** 0.198 µM

**Q.** With `COc1ccc2nc(NCc3ccccn3)sc2c1` [Compound 1, 6-methoxy-N-(pyridin-2-ylmethyl)benzo[d]thiazol-2-amine] as the compound, how does the IC50 read?
**A.** 2.4 µM

system: LNCaP cells; assay: Cell growth inhibition assay (MTT); assay type: cell-based, human; conditions: Homo sapiens, LNCaP, 72 h after drug exposure
Procedure: as §1, §2

**Q.** Which IC50 does the source give for `CCNC(=O)N(Cc1ccccn1)c1nc2ccc(OC)cc2s1` [Compound 7, 3-ethyl-1-(6-methoxybenzo[d]thiazol-2-yl)-1-(pyridin-2-ylmethyl)urea] here?
**A.** 0.247 µM

**Q.** Which IC50 does the source give for `COc1ccc2nc(NCc3ccccn3)sc2c1` [Compound 1, 6-methoxy-N-(pyridin-2-ylmethyl)benzo[d]thiazol-2-amine] here?
**A.** 1.52 µM

system: MCF7 cells; assay: Cell growth inhibition assay (MTT); assay type: cell-based, human; conditions: Homo sapiens, MCF7; MTT, 72 h after drug exposure
Procedure: as §1, §2

**Q.** With `CCNC(=O)N(Cc1ccccn1)c1nc2ccc(OC)cc2s1` [Compound 7, 3-ethyl-1-(6-methoxybenzo[d]thiazol-2-yl)-1-(pyridin-2-ylmethyl)urea] as the compound, how does the IC50 read?
**A.** 0.251 µM

**Q.** With `COc1ccc2nc(NCc3ccccn3)sc2c1` [Compound 1, 6-methoxy-N-(pyridin-2-ylmethyl)benzo[d]thiazol-2-amine] as the compound, how does the IC50 read?
**A.** 1.53 µM

system: PC-3 cells; assay: Cell growth inhibition assay (MTT); assay type: cell-based, human; conditions: Homo sapiens, PC-3, 72 h after drug exposure
Procedure: as §1, §2

**Q.** For `CCNC(=O)N(Cc1ccccn1)c1nc2ccc(OC)cc2s1` [Compound 7, 3-ethyl-1-(6-methoxybenzo[d]thiazol-2-yl)-1-(pyridin-2-ylmethyl)urea], which IC50 is on record?
**A.** 0.33 µM

**Q.** Which IC50 does the source give for `COc1ccc2nc(NCc3ccccn3)sc2c1` [Compound 1, 6-methoxy-N-(pyridin-2-ylmethyl)benzo[d]thiazol-2-amine] here?
**A.** 2.11 µM

system: T98G cells; assay: Cell growth inhibition assay (MTT); assay type: cell-based, human; conditions: Homo sapiens, T98G, 72 h after drug exposure
Procedure: as §1, §2

**Q.** With `CCNC(=O)N(Cc1ccccn1)c1nc2ccc(OC)cc2s1` [Compound 7, 3-ethyl-1-(6-methoxybenzo[d]thiazol-2-yl)-1-(pyridin-2-ylmethyl)urea] as the compound, how does the IC50 read?
**A.** 0.125 µM

**Q.** For `COc1ccc2nc(NCc3ccccn3)sc2c1` [Compound 1, 6-methoxy-N-(pyridin-2-ylmethyl)benzo[d]thiazol-2-amine], which IC50 is on record?
**A.** 2.4 µM

system: U87MG cells; assay: Cell growth inhibition assay (MTT); assay type: cell-based, human; conditions: Homo sapiens, U-87 MG; MTT, 72 h after drug exposure
Procedure: as §1, §2

**Q.** Which IC50 does the source give for `CCNC(=O)N(Cc1ccccn1)c1nc2ccc(OC)cc2s1` [Compound 7, 3-ethyl-1-(6-methoxybenzo[d]thiazol-2-yl)-1-(pyridin-2-ylmethyl)urea] here?
**A.** 0.062 µM

**Q.** With `COc1ccc2nc(NCc3ccccn3)sc2c1` [Compound 1, 6-methoxy-N-(pyridin-2-ylmethyl)benzo[d]thiazol-2-amine] as the compound, how does the IC50 read?
**A.** 1.61 µM

system: GL261 cells; assay: Cell growth inhibition assay (MTT); assay type: cell-based, murine; conditions: Mus musculus, GL261, 72 h after drug exposure
Procedure: as §1, §2

**Q.** Which IC50 does the source give for `CCNC(=O)N(Cc1ccccn1)c1nc2ccc(OC)cc2s1` [Compound 7, 3-ethyl-1-(6-methoxybenzo[d]thiazol-2-yl)-1-(pyridin-2-ylmethyl)urea] here?
**A.** 0.096 µM

**Q.** With `COc1ccc2nc(NCc3ccccn3)sc2c1` [Compound 1, 6-methoxy-N-(pyridin-2-ylmethyl)benzo[d]thiazol-2-amine] as the compound, how does the IC50 read?
**A.** 2.17 µM

system: HEK-293 cells; assay: Cell growth inhibition assay (MTT), non-tumorigenic cells; assay type: cell-based, human; conditions: Homo sapiens, HEK293, 72 h after drug exposure, non-tumorigenic cell line
Procedure: as §1, §2

**Q.** Which IC50 does the source give for `CCNC(=O)N(Cc1ccccn1)c1nc2ccc(OC)cc2s1` [Compound 7, 3-ethyl-1-(6-methoxybenzo[d]thiazol-2-yl)-1-(pyridin-2-ylmethyl)urea] here?
**A.** 8.81 µM

**Q.** For `COc1ccc2nc(NCc3ccccn3)sc2c1` [Compound 1, 6-methoxy-N-(pyridin-2-ylmethyl)benzo[d]thiazol-2-amine], which IC50 is on record?
**A.** > 10 µM

system: HT-29 cells; assay: Cell growth inhibition (MTT) in the presence of 10 µM verapamil (sensitivity to MDR efflux pumps); assay type: cell-based, human; conditions: 10 µM verapamil (P-gp/MDR1 inhibitor)
Procedure: as §2

**Q.** With `CCNC(=O)N(Cc1ccccn1)c1nc2ccc(OC)cc2s1` [Compound 7, 3-ethyl-1-(6-methoxybenzo[d]thiazol-2-yl)-1-(pyridin-2-ylmethyl)urea] as the compound, how does the IC50 read?
**A.** 0.315 µM

**Q.** Which IC50 does the source give for `COc1ccc2nc(NCc3ccccn3)sc2c1` [Compound 1, 6-methoxy-N-(pyridin-2-ylmethyl)benzo[d]thiazol-2-amine] here?
**A.** 3.47 µM

system: bovine brain tubulin; assay: Tubulin polymerization inhibition (turbidimetry); assay type: biochemical; conditions: compounds tested at 10 µM, with respect to the negative control
Procedure: Microtubular protein was isolated from calf brain following the modified Shelanski method, based on temperature-dependent assembly/disassembly of tubulin [45]. The protein was stored at −80 °C, and its concentration was determined using the Bradford method before each use. Tubulin polymerization, which occurs when heating a buffered tubulin sample from 4 °C to 37 °C, is accompanied by an increase in the absorbance (at 450 nm) of the sample that was monitored by a Helios α spectrophotometer. […] Then, the temperature was adjusted to 4 °C, and the temperature being shifted to 37 °C allowed for the assembly process of tubulin. The turbidity caused by tubulin polymerization was measured by the increased absorbance at 450 nm. The increase in absorbance obtained for the control sample (without the ligand), which we considered to be 100% tubulin polymerization (0% inhibition), compared with the increase in absorbance determined for the sample containing ligands yielded the degree of tubulin polymerization inhibition (TPI), which is expressed as a percentage value. For the compounds displaying TPI values over 50% at 10 µM, the IC50 value for TPI was calculated. Measurements were performed in triplicate in two independent experiments using microtubular protein from different preparations.

**Q.** For `CCNC(=O)N(Cc1ccccn1)c1nc2ccc(OC)cc2s1` [Compound 7, 3-ethyl-1-(6-methoxybenzo[d]thiazol-2-yl)-1-(pyridin-2-ylmethyl)urea], which “% TPI” value is on record?
**A.** 87%

same assay, conditions: concentration inhibiting 50% of microtubular protein polymerization in vitro; read-out: TPI IC50

**Q.** Which IC50 does the source give for `CCNC(=O)N(Cc1ccccn1)c1nc2ccc(OC)cc2s1` [Compound 7, 3-ethyl-1-(6-methoxybenzo[d]thiazol-2-yl)-1-(pyridin-2-ylmethyl)urea] here?
**A.** 4.2 µM

**Q.** With `COc1ccc2nc(NCc3ccccn3)sc2c1` [Compound 1, 6-methoxy-N-(pyridin-2-ylmethyl)benzo[d]thiazol-2-amine] as the compound, how does the IC50 read?
**A.** > 10 µM

system: tumor cell lines; assay: Cell growth inhibition assay (MTT), summary statements over several cell lines; assay type: cell-based; conditions: HeLa, HepG2, MCF7, and U87MG; read-out: antiproliferative IC50
Procedure: as §2

**Q.** Which IC50 does the source give for `COc1ccc2nc(NCc3ccccn3)sc2c1` [Compound 1, 6-methoxy-N-(pyridin-2-ylmethyl)benzo[d]thiazol-2-amine] here?
**A.** ~1 µM

same assay, conditions: the rest of the cell lines (other than glioblastoma U87MG and GL261); read-out: antiproliferative IC50

**Q.** Which IC50 does the source give for `CCNC(=O)N(Cc1ccccn1)c1nc2ccc(OC)cc2s1` [Compound 7, 3-ethyl-1-(6-methoxybenzo[d]thiazol-2-yl)-1-(pyridin-2-ylmethyl)urea] here?
**A.** 0.1 to 0.3 µM

same assay, conditions: the rest of the tumor cell lines (other than HeLa, HepG2, MCF7, U87MG); read-out: antiproliferative IC50

**Q.** With `COc1ccc2nc(NCc3ccccn3)sc2c1` [Compound 1, 6-methoxy-N-(pyridin-2-ylmethyl)benzo[d]thiazol-2-amine] as the compound, how does the IC50 read?
**A.** 2 to 3 µM
